Assay results as given in BindingDB's records for doi:10.1021/jm300185p (Takeda Pharmaceutical, 2012).

Target: Mitogen-activated protein kinase kinase kinase 7 (TAK1 kinase) (Homo sapiens) (UniProt O43318)
Experiment: Inhibition of N-terminus FLAG-tagged TAK1 expressed in baculovirus expression system using [gamma-33P]-ATP measured after 60 mins by scintillation counting

Sequence of Mitogen-activated protein kinase kinase kinase 7 (TAK1 kinase) (Homo sapiens) (O43318 whole entry, looked up): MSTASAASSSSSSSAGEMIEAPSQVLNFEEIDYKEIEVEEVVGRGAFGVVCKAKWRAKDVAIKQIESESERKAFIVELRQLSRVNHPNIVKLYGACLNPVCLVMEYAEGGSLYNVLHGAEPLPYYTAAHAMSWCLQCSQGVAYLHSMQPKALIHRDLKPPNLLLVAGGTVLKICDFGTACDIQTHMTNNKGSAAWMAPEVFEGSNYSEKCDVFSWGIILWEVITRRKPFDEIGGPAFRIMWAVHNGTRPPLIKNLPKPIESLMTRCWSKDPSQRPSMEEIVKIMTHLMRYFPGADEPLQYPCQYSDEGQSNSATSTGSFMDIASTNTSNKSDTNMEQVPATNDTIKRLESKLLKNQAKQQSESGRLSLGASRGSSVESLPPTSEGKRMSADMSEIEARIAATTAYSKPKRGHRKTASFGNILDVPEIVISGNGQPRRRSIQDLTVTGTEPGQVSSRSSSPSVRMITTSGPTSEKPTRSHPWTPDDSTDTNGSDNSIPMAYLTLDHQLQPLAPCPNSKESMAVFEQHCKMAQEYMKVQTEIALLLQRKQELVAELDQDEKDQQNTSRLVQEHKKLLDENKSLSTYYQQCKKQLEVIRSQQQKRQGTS

Which IC50 does the source give for CC(C)(N)C(=O)NCCn1ccc2ncnc(Nc3ccc(Oc4cccc5sncc45)c(Cl)c3)c21 here?
The IC50 was > 10 µM.
